16 molecules from patent US7045528B2, “Benzofused heterozryl amide derivatives of thienopyridines useful as therapeutic agents, pharmaceutical compositions including the same, and methods for their use” (Agouron Pharmaceuticals, Inc., priority 2002, dated 2006) can be followed below.

For one experiment, the target named is T1, PDGFRβ (Homo sapiens, UniProt P09619).
T1 construct: expressed in transfected cells; host or cells: porcine aorta endothelial (PAE)-PDGFRβ cells
Description: PAE-PDGFRβ phosphorylation in PAE-PDGFRB cells assay. Format: cell-based. To be noted: PAE cells overexpressing human PDGFRβ, PDGF-BB stimulated; read-out: PAE PDGFR autophos IC50 (nM) AVG. In outline: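 PAE cells overexpressing human PDGFRβ, serum-starved 16 h (0.1% FBS), were given compound for 1 h at 37 °C (0.5% DMSO) and then stimulated with 1 μg/mL PDGF-BB plus 2 mM Na3VO4 for 8 min. Receptor autophosphorylation was read by capture ELISA (HRP-PY20, TMB, 450 nm); IC50 from 4-parameter fit.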

The subject of experiment [1] is human umbilical vein endothelial cells (HUVEC). The experiment in a line: HUVEC+VEGF proliferation assay. The format is cell-based. Conditions: VEGF 6 ng/mL, 72 h, MTT. The method in brief: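 Exponentially growing passage 3–4 HUVEC were starved 24 h in F12K + 1% FBS, given compound (0.1% final DMSO) 1 h before 6 ng/mL final VEGF, then cultured 72 h. Proliferation was read as MTT dye reduction (4 h exposure), absorbance at 595 nm.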

Experiment [2] deals with T2, unphosphorylated VEGF-R2Δ50 (FLVK) (Homo sapiens, UniProt P35968, DEL940-989/E990V).
T2 construct: VEGF-R2Δ50 contains residues 806–939 and 990–1171; made in house; host or cells: baculovirus/insect cell system
Description: VEGF-R2 coupled spectrophotometric assay, unphosphorylated VEGF-R2Δ50 (FLVK). The format is biochemical. To be noted: unphosphorylated VEGF-R2Δ50; for inhibition at 0.05 µM: read-out: FLVK (% inh @ 50 nM). In outline: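 Baculovirus-expressed human VEGF-R2Δ50 (kinase insert partly deleted, E990V), unphosphorylated form; ADP production coupled via PK/LDH to NADH oxidation, read at 340 nm. 20 mM poly(E4Y1), 3 mM ATP, 60 mM MgCl2, 2 mM MnCl2, 200 mM HEPES pH 7.5; 5–40 nM enzyme. Ki from Morrison tight-binding fit.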

Another experiment has as its system Huvec. The experiment in a line: bFGF Huvec proliferation. Format: cell-based, human.

T1 sequence (P09619 33-1106): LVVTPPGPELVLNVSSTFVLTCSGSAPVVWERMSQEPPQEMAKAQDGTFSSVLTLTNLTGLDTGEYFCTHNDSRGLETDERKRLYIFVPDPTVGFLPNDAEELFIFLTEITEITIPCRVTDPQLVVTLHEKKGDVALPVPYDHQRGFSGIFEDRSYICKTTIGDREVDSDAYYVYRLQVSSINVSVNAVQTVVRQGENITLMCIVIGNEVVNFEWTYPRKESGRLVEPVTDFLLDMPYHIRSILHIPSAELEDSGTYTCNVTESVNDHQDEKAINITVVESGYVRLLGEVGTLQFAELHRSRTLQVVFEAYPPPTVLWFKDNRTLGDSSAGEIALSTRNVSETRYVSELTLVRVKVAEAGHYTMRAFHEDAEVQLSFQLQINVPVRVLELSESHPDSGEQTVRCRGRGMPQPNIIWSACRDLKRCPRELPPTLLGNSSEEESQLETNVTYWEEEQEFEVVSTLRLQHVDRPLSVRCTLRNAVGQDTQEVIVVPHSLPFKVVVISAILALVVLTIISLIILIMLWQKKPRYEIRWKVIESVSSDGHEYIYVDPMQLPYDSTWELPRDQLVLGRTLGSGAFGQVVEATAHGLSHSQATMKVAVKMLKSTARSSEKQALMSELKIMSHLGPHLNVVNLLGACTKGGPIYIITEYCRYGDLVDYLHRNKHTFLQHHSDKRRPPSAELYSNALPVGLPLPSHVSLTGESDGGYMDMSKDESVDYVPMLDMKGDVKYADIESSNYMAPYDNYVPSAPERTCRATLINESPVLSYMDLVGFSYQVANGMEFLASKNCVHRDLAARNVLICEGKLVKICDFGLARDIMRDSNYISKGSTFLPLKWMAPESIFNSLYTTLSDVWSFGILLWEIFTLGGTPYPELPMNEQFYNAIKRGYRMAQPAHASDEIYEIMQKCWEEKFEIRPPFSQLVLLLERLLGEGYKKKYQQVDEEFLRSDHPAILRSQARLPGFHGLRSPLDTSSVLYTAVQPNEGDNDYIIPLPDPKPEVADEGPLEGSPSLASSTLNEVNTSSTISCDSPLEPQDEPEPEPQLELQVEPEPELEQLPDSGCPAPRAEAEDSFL
T2 sequence (P35968 with tags, fused parts or gaps DEL940-989/E990V limits assumed): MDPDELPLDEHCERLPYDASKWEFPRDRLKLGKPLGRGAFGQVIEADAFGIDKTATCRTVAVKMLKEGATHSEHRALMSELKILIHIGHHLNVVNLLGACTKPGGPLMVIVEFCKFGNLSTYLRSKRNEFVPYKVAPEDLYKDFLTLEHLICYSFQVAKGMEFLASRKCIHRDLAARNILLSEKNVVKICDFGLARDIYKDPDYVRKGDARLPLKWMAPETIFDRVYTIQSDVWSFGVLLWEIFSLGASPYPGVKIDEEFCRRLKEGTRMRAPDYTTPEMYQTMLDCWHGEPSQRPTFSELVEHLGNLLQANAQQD

Usually IC50 stands for the point on the concentration scale where inhibition reaches its midpoint. In general, Ki refers to the equilibrium dissociation constant of an inhibitor or competing ligand from its target. Read a high Ki as a looser hold on the target. Take `Cc1sc2cc(Oc3ccnc4cc(-c5nccn5C)sc34)ccc2c1C(=O)NC1CC1` [Example 117, 2-Methyl-6-{[2-(1-methyl-1H-imidazol-2-yl)thieno[3,2-b]pyridin-7-yl]oxy}benzo[b]thiophene-3-carboxylic acid cyclopropylamide]: the IC50 at PDGFRβ stood at 189 nM; in experiment [1] (Homo sapiens, HUVEC) it was 0.07 nM; in the experiment on Huvec (Homo sapiens, HUVEC) it was 86 nM. The inhibition at 0.05 µM in experiment [2] (50 nM compound) came to 87%. For the same molecule, the Ki in experiment [2] came to 0.2 nM.

For the molecule `Cc1sc2cc(Oc3ccnc4cc(-c5nccn5C)sc34)ccc2c1C(=O)NCC1CC1` [Example 119, 2-Methyl-6-{[2-(1-methyl-1-imidazol-2-yl)thieno[3,2-b]pyridin-7-yl]oxy}benzo[b]thiophene-3-carboxylic acid (cyclopropylmethyl)amide], the IC50 was 90.6 nM at PDGFRβ; 1.46 nM in experiment [1] (Homo sapiens, HUVEC); 1830 nM in the experiment on Huvec (Homo sapiens, HUVEC). Besides, the inhibition at 0.05 µM in experiment [2] (50 nM compound) was determined as 95%. In experiment [2], this molecule returned a Ki of 0.375 nM.

As for `COC[C@@H]1CCCN1C(=O)c1cc2nccc(Oc3ccc4c(C(=O)NC5CC5)c(C)sc4c3)c2s1` [Example 120, 6-[(2-{[(2S)-2-(Methoxymethyl)pyrrolidin-1-yl]carbonyl}thieno[3,2-b]pyridin-7-yl)oxy]-2-methylbenzo[b]thiophene-3-carboxylic acid cyclopropylamide], the half-maximal inhibitory concentration (IC50) stood at 405 nM on PDGFRβ; 0.491 nM in experiment [1] (Homo sapiens, HUVEC); 489 nM with Huvec (Homo sapiens, HUVEC). The inhibition at 0.05 µM in experiment [2] (50 nM compound) is 93%. For the same molecule, the Ki in experiment [2] came out at 0.6 nM.

Regarding `Cc1sc2cc(Oc3ccnc4cc(C(=O)N5CC[C@@H](O)C5)sc34)ccc2c1C(=O)NC1CC1` [Example 121, 6[(2-{[(3R)-3-Hydroxypyrrolidin-1-yl]carbonyl}thieno[3,2-b]pyridin-7-yl)oxy]-2-methylbenzo[b]thiophene-3-carboxylic acid cyclopropylamide], the IC50 at PDGFRβ turned out to be 220 nM; in experiment [1] (Homo sapiens, HUVEC) it was 0.24 nM; with Huvec (Homo sapiens, HUVEC), 100 nM. In experiment [2] (50 nM compound), the inhibition at 0.05 µM worked out at 94%. The affinity in experiment [2] corresponds to a Ki of 0.2 nM.

On to `CO[C@@H]1CCN(C(=O)c2cc3nccc(Oc4ccc5c(C(=O)NCCCO)c(C)sc5c4)c3s2)C1` [Example 124, 6-[(2-{[(3R)-3-Methoxypyrrolidin-1-yl]carbonyl}thieno[3,2-b]pyridin-7-yl)oxy]-2-methylbenzo[b]thiophene-3-carboxylic acid 3-hydroxypropylamide], for which the IC50 at PDGFRβ stood at 376 nM; in experiment [1] (Homo sapiens, HUVEC), 1.6 nM; in the experiment with Huvec (Homo sapiens, HUVEC), 8240 nM. Further, the inhibition at 0.05 µM in experiment [2] (50 nM compound) was 82%. Also, in experiment [2], the affinity, expressed as Ki, was 2.19 nM.

With `CO[C@@H]1CCN(C(=O)c2cc3nccc(Oc4ccc5c(C(=O)NCC6CC6)c(C)sc5c4)c3s2)C1` [Example 125, 6-[(2-{[(3R)-3-Methoxypyrrolidin-1-yl]carbonyl}thieno[3,2-b]pyridin-7-yl)oxy]-2-methylbenzo[b]thiophene-3-carboxylic acid (cyclopropylmethyl)amide], the IC50 at PDGFRβ came to 179 nM; in experiment [1] (Homo sapiens, HUVEC), 2 nM; in the experiment on Huvec (Homo sapiens, HUVEC), 969 nM. Moreover, the inhibition at 0.05 µM in experiment [2] (50 nM compound) was determined as 95%. In experiment [2], this molecule yielded a Ki of 0.219 nM.

Turning to `Cc1sc2cc(Oc3ccnc4cc(C(=O)N5CC[C@@H](O)C5)sc34)ccc2c1C(=O)NCC1CC1` [Example 126, 6[(2-{[(3R)-3-Hydroxypyrrolidin-1-yl]carbonyl}thieno[3,2-b]pyridin-7-yl)oxy]-2-methylbenzo[b]thiophene-3-carboxylic acid (cyclopropylmethyl)amide], the IC50 was determined as 336 nM on PDGFRβ; 10 nM in experiment [1] (Homo sapiens, HUVEC); 5660 nM in the experiment on Huvec (Homo sapiens, HUVEC). In addition, the inhibition at 0.05 µM in experiment [2] (50 nM compound) is 96%. In experiment [2], the inhibitory constant (Ki) amounted to 0.59 nM.

In the case of `Cc1sc2cc(Oc3ccnc4cc(C(=O)N5CCC5)sc34)ccc2c1C(=O)NC1CC1` [Example 127, 6-{[2-(Azetidin-1-ylcarbonyl)thieno[3,2-b]pyridin-7-yl]oxy}2-methylbenzo[b]thiophene-3-carboxylic acid cyclopropylamide], the IC50 at PDGFRβ turned out to be 102 nM; in experiment [1] (Homo sapiens, HUVEC), 1 nM; in the experiment with Huvec (Homo sapiens, HUVEC), 41 nM. Moreover, in experiment [2] (50 nM compound), the inhibition at 0.05 µM is 100%. This molecule also yielded a Ki in experiment [2] of 0.2 nM.

In the case of `CNC(=O)c1c(C)sc2cc(Oc3ccnc4cc(-c5nc(CO)cs5)sc34)ccc12` [Example 128], the IC50 on PDGFRβ is 148 nM; in experiment [1] (Homo sapiens, HUVEC), 0.13 nM; in the experiment with Huvec (Homo sapiens, HUVEC), 100 nM. In experiment [2] (50 nM compound), the inhibition at 0.05 µM turned out to be 91%. Also, in experiment [2], the Ki stood at 0.57 nM.

Turning to `Cc1sc2cc(Oc3ccnc4cc(-c5nc(CO)cs5)sc34)ccc2c1C(=O)NC1CC1` [Example 129], the IC50 at PDGFRβ is 168 nM; in experiment [1] (Homo sapiens, HUVEC) it was 0.219 nM; with Huvec (Homo sapiens, HUVEC), 100 nM. Moreover, the inhibition at 0.05 µM in experiment [2] (50 nM compound) is 88%. For the same molecule, in experiment [2], the Ki worked out at 0.2 nM.

For the molecule `Cc1sc2cc(Oc3ccnc4cc(-c5nc(CO)cs5)sc34)ccc2c1C(=O)NCC1CC1` [Example 130], the IC50 worked out at 335 nM on PDGFRβ; 0.49 nM in experiment [1] (Homo sapiens, HUVEC); 100 nM with Huvec (Homo sapiens, HUVEC). Further, the inhibition at 0.05 µM in experiment [2] (50 nM compound) was determined as 95%. In experiment [2], this molecule registered a Ki of 0.39 nM.

Consider `Cc1sc2cc(Oc3ccnc4cc(C(=O)N5CCC5)sc34)ccc2c1C(=O)NCC1CC1` [Example 131, 6-{[2-(Azetidin-1-ylcarbonyl)thieno[3,2-b]pyridin-7-yl]oxy}-2-methylbenzo[b]thiophene-3-carboxylic acid (cyclopropylmethyl)amide], for which the IC50 is 97 nM at PDGFRβ; 1.89 nM in experiment [1] (Homo sapiens, HUVEC); 260 nM in the experiment on Huvec (Homo sapiens, HUVEC). In addition, the inhibition at 0.05 µM in experiment [2] (50 nM compound) amounted to 96%. Further, in experiment [2], the affinity, expressed as Ki, was 0.2 nM.

For the molecule `CCc1sc2cc(Oc3ccnc4cc(-c5nccn5C)sc34)ccc2c1C(=O)NC` [Example 134, 2-Ethyl 6-{[2-(1-methyl-1H-imidazol-2-yl)thieno[3,2-b]pyridin-7-yl]oxy}benzo[b]thiophene-3-carboxylic acid methylamide], the IC50 on PDGFRβ was determined as 177 nM; in experiment [1] (Homo sapiens, HUVEC), 0.656 nM; in the experiment on Huvec (Homo sapiens, HUVEC), 1070 nM. In addition, the inhibition at 0.05 µM in experiment [2] (50 nM compound) amounted to 94%. The molecule further displayed a Ki in experiment [2] of 1.44 nM.

Regarding `CCc1sc2cc(Oc3ccnc4cc(C(=O)N5CC[C@@H](OC)C5)sc34)ccc2c1C(=O)NC` [Example 135, 2-Ethyl-6-[(2-{[(3R)-3-methoxypyrrolidin-1-yl]carbonyl}thieno[3,2-b]pyridin-7-yl)oxy]benzo[b]thiophene-3-carboxylic acid methylamide], the IC50 on PDGFRβ amounted to 212 nM; in experiment [1] (Homo sapiens, HUVEC), 1.02 nM; in the experiment with Huvec (Homo sapiens, HUVEC), 559 nM. The inhibition at 0.05 µM in experiment [2] (50 nM compound) was found to be 87%. The same molecule had a Ki in experiment [2] of 1.54 nM.

For the molecule `CCc1sc2cc(Oc3ccnc4cc(C(=O)N5CCC[C@H]5COC)sc34)ccc2c1C(=O)NC` [Example 137, 2-Ethyl-6-[(2-{[(2S)-2-(methoxymethyl)pyrrolidin-1-yl]carbonyl}thieno[3,2-b]pyridin-7-yl)oxy]benzo[b]thiophene-3-carboxylic acid methylamide], the IC50 on PDGFRβ turned out to be 213 nM; in experiment [1] (Homo sapiens, HUVEC) it was 2.1 nM; with Huvec (Homo sapiens, HUVEC), 294 nM. In addition, the inhibition at 0.05 µM in experiment [2] (50 nM compound) worked out at 64%. In experiment [2], this molecule showed an inhibitory constant (Ki) of 5.1 nM.

For the molecule “Methoxy-azetidine-1-carbonyl)-thieno[3,2-b]pyridin-7-yloxy]-2-methyl-benzofuran-3-carboxylic acid methylamide [Example 78]”, the values for the half-maximal inhibitory concentration (IC50) (at PDGFRβ; in experiment [1]; in the experiment on Huvec (bFGF)) were 14.8 nM, 0.507 nM and 30 nM, respectively. Also, the “FLVK (% inh @ 50 nM)” value in experiment [2] (50 nM compound) is recorded as 93%. This molecule also registered a Ki in experiment [2] of 0.221 nM.
